{"source": "paper PMC11062899", "about": "“De novo development of small cyclic peptides that are orally bioavailable” (Nature Chemical Biology, 2023)", "key": {"human α-thrombin": {"target": "human α-thrombin (Homo sapiens, UniProt P00734)", "assay": "Protease inhibition, Ki for human α-thrombin (fluorogenic substrate Z-Gly-Gly-Arg-AMC)", "type": "biochemical", "settings": "for slope normalized to DMSO, human alpha thrombin inhibition / Human alpha thrombin inhibition, slope normalized to DMSO: replicates R1-R3", "method_in_brief": "(§1)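 Inhibition was measured as AMC fluorescence from 50 μM substrate, monitored for 30 min at 25 °C, relative to a peptide-free control. Human and rat enzymes were present at 2 nM and 3 nM final, respectively, in 50 mM Tris-HCl pH 7.4, 150 mM NaCl, 10 mM MgCl2, 1 mM CaCl2. Ki derives from fitted IC50 via Cheng–Prusoff.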"}, "rat α-thrombin": {"target": "T1, rat α-thrombin (Rattus norvegicus, UniProt P18292)", "T1 construct": "rat α-thrombin (Molecular Innovations) were used at final concentrations of 2 nM and 3 nM; purchased Molecular Innovations", "assay": "Protease inhibition, Ki for rat α-thrombin (fluorogenic substrate Z-Gly-Gly-Arg-AMC)", "type": "biochemical", "settings": "replicates R1-R3", "method_in_brief": "as §1"}}, "note": "Values joined by “and” are separate entries in the source; they are usually repeats but may differ in a detail not shown here. Identical values can stand only once. Like-named read-outs stand apart in the source and are kept apart here.", "data": [{"smiles": "O=C1C[C@H]2CCCN2C(=O)[C@H](Cc2ccccc2)NC(=O)[C@@H](NC(=O)c2ccc(Cl)s2)CCC=CCCCCN1", "note": "[peptide 43]", "values": [{"measurement": "slope normalized to DMSO, human alpha thrombin inhibition", "setting": "human α-thrombin; peptide 1.00E+02 uM", "value": "10.6 and 8.4 (2×)"}, {"measurement": "slope normalized to DMSO, human alpha thrombin inhibition", "setting": "human α-thrombin; peptide 1.19E-05 uM", "value": "106.5 and 81.0 and 107.9"}, {"measurement": "slope normalized to DMSO, human alpha thrombin inhibition", "setting": "human α-thrombin; peptide 1.22E-02 uM", "value": "62.0 and 85.6 and 70.0"}, {"measurement": "slope normalized to DMSO, human alpha thrombin inhibition", "setting": "human α-thrombin; peptide 1.25E+01 uM", "value": "12.3 and 9.9 and 11.8"}, {"measurement": "slope normalized to DMSO, human alpha thrombin inhibition", "setting": "human α-thrombin; peptide 1.53E-03 uM", "value": "95.1 and 99.7 and 102.7"}, {"measurement": "slope normalized to DMSO, human alpha thrombin inhibition", "setting": "human α-thrombin; peptide 1.56E+00 uM", "value": "18.3 and 16.9 and 22.5"}, {"measurement": "slope normalized to DMSO, human alpha thrombin inhibition", "setting": "human α-thrombin; peptide 1.91E-04 uM", "value": "119.9 and 101.0 and 100.8"}, {"measurement": "slope normalized to DMSO, human alpha thrombin inhibition", "setting": "human α-thrombin; peptide 1.95E-01 uM", "value": "42.7 and 40.6 and 41.3"}, {"measurement": "slope normalized to DMSO, human alpha thrombin inhibition", "setting": "human α-thrombin; peptide 2.38E-05 uM", "value": "106.9 and 97.9 and 102.5"}, {"measurement": "slope normalized to DMSO, human alpha thrombin inhibition", "setting": "human α-thrombin; peptide 2.44E-02 uM", "value": "46.0 and 65.3 and 70.3"}, {"measurement": "slope normalized to DMSO, human alpha thrombin inhibition", "setting": "human α-thrombin; peptide 2.50E+01 uM", "value": "11.7 and 11.0 and 8.9"}, {"measurement": "slope normalized to DMSO, human alpha thrombin inhibition", "setting": "human α-thrombin; peptide 3.05E-03 uM", "value": "106.1 and 101.5 and 67.8"}, {"measurement": "slope normalized to DMSO, human alpha thrombin inhibition", "setting": "human α-thrombin; peptide 3.12E+00 uM", "value": "3.8 and 18.2 and 18.8"}, {"measurement": "slope normalized to DMSO, human alpha thrombin inhibition", "setting": "human α-thrombin; peptide 3.81E-04 uM", "value": "102.1 and 100.1 and 93.5"}, {"measurement": "slope normalized to DMSO, human alpha thrombin inhibition", "setting": "human α-thrombin; peptide 3.91E-01 uM", "value": "14.9 and 22.0 and 10.5"}, {"measurement": "slope normalized to DMSO, human alpha thrombin inhibition", "setting": "human α-thrombin; peptide 4.77E-05 uM", "value": "101.9 and 97.6 and 92.9"}, {"measurement": "slope normalized to DMSO, human alpha thrombin inhibition", "setting": "human α-thrombin; peptide 4.88E-02 uM", "value": "73.8 and 55.8 and 60.0"}, {"measurement": "slope normalized to DMSO, human alpha thrombin inhibition", "setting": "human α-thrombin; peptide 5.00E+01 uM", "value": "9.3 and 5.3"}, {"measurement": "slope normalized to DMSO, human alpha thrombin inhibition", "setting": "human α-thrombin; peptide 6.10E-03 uM", "value": "98.4 and 93.3 and 99.0"}, {"measurement": "slope normalized to DMSO, human alpha thrombin inhibition", "setting": "human α-thrombin; peptide 6.25E+00 uM", "value": "13.3 and 15.1 and 10.3"}, {"measurement": "slope normalized to DMSO, human alpha thrombin inhibition", "setting": "human α-thrombin; peptide 7.63E-04 uM", "value": "80.8 and 91.3 and 104.9"}, {"measurement": "slope normalized to DMSO, human alpha thrombin inhibition", "setting": "human α-thrombin; peptide 7.81E-01 uM", "value": "21.2 and 22.0 (2×)"}, {"measurement": "slope normalized to DMSO, human alpha thrombin inhibition", "setting": "human α-thrombin; peptide 9.54E-05 uM", "value": "101.3 and 101.9 and 107.5"}, {"measurement": "slope normalized to DMSO, human alpha thrombin inhibition", "setting": "human α-thrombin; peptide 9.77E-02 uM", "value": "65.8 and 56.8 and 59.4"}, {"measurement": "Human alpha thrombin inhibition, slope normalized to DMSO", "setting": "human α-thrombin; peptide concentration 1.00E+02 uM", "value": "10.6 and 8.4 (2×)"}, {"measurement": "Human alpha thrombin inhibition, slope normalized to DMSO", "setting": "human α-thrombin; peptide concentration 1.19E-05 uM", "value": "106.5 and 81.0 and 107.9"}, {"measurement": "Human alpha thrombin inhibition, slope normalized to DMSO", "setting": "human α-thrombin; peptide concentration 1.22E-02 uM", "value": "62.0 and 85.6 and 70.0"}, {"measurement": "Human alpha thrombin inhibition, slope normalized to DMSO", "setting": "human α-thrombin; peptide concentration 1.25E+01 uM", "value": "12.3 and 9.9 and 11.8"}, {"measurement": "Human alpha thrombin inhibition, slope normalized to DMSO", "setting": "human α-thrombin; peptide concentration 1.53E-03 uM", "value": "95.1 and 99.7 and 102.7"}, {"measurement": "Human alpha thrombin inhibition, slope normalized to DMSO", "setting": "human α-thrombin; peptide concentration 1.56E+00 uM", "value": "18.3 and 16.9 and 22.5"}, {"measurement": "Human alpha thrombin inhibition, slope normalized to DMSO", "setting": "human α-thrombin; peptide concentration 1.91E-04 uM", "value": "119.9 and 101.0 and 100.8"}, {"measurement": "Human alpha thrombin inhibition, slope normalized to DMSO", "setting": "human α-thrombin; peptide concentration 1.95E-01 uM", "value": "42.7 and 40.6 and 41.3"}, {"measurement": "Human alpha thrombin inhibition, slope normalized to DMSO", "setting": "human α-thrombin; peptide concentration 2.38E-05 uM", "value": "106.9 and 97.9 and 102.5"}, {"measurement": "Human alpha thrombin inhibition, slope normalized to DMSO", "setting": "human α-thrombin; peptide concentration 2.44E-02 uM", "value": "46.0 and 65.3 and 70.3"}, {"measurement": "Human alpha thrombin inhibition, slope normalized to DMSO", "setting": "human α-thrombin; peptide concentration 2.50E+01 uM", "value": "11.7 and 11.0 and 8.9"}, {"measurement": "Human alpha thrombin inhibition, slope normalized to DMSO", "setting": "human α-thrombin; peptide concentration 3.05E-03 uM", "value": "106.1 and 101.5 and 67.8"}, {"measurement": "Human alpha thrombin inhibition, slope normalized to DMSO", "setting": "human α-thrombin; peptide concentration 3.12E+00 uM", "value": "3.8 and 18.2 and 18.8"}, {"measurement": "Human alpha thrombin inhibition, slope normalized to DMSO", "setting": "human α-thrombin; peptide concentration 3.81E-04 uM", "value": "102.1 and 100.1 and 93.5"}, {"measurement": "Human alpha thrombin inhibition, slope normalized to DMSO", "setting": "human α-thrombin; peptide concentration 3.91E-01 uM", "value": "14.9 and 22.0 and 10.5"}, {"measurement": "Human alpha thrombin inhibition, slope normalized to DMSO", "setting": "human α-thrombin; peptide concentration 4.77E-05 uM", "value": "101.9 and 97.6 and 92.9"}, {"measurement": "Human alpha thrombin inhibition, slope normalized to DMSO", "setting": "human α-thrombin; peptide concentration 4.88E-02 uM", "value": "73.8 and 55.8 and 60.0"}, {"measurement": "Human alpha thrombin inhibition, slope normalized to DMSO", "setting": "human α-thrombin; peptide concentration 5.00E+01 uM", "value": "9.3 and 5.3"}, {"measurement": "Human alpha thrombin inhibition, slope normalized to DMSO", "setting": "human α-thrombin; peptide concentration 6.10E-03 uM", "value": "98.4 and 93.3 and 99.0"}, {"measurement": "Human alpha thrombin inhibition, slope normalized to DMSO", "setting": "human α-thrombin; peptide concentration 6.25E+00 uM", "value": "13.3 and 15.1 and 10.3"}, {"measurement": "Human alpha thrombin inhibition, slope normalized to DMSO", "setting": "human α-thrombin; peptide concentration 7.63E-04 uM", "value": "80.8 and 91.3 and 104.9"}, {"measurement": "Human alpha thrombin inhibition, slope normalized to DMSO", "setting": "human α-thrombin; peptide concentration 7.81E-01 uM", "value": "21.2 and 22.0 (2×)"}, {"measurement": "Human alpha thrombin inhibition, slope normalized to DMSO", "setting": "human α-thrombin; peptide concentration 9.54E-05 uM", "value": "101.3 and 101.9 and 107.5"}, {"measurement": "Human alpha thrombin inhibition, slope normalized to DMSO", "setting": "human α-thrombin; peptide concentration 9.77E-02 uM", "value": "65.8 and 56.8 and 59.4"}, {"measurement": "Ki", "setting": "human α-thrombin; purified peptide, mean and s.d. of three measurements, read-out: Ki human α-thrombin", "value": "50 ± 6", "unit": "nM"}, {"measurement": "IC50", "setting": "human α-thrombin; single replicates R1-R3, read-out: Human alpha thrombin inhibition, IC50", "value": "56.4 nM and 74.7 nM and 63.5 nM"}, {"measurement": "Ki", "setting": "human α-thrombin; single replicates R1-R3, read-out: Human alpha thrombin inhibition, Ki", "value": "43.5 nM and 57.6 nM and 48.9 nM"}, {"measurement": "slope normalized to DMSO, rat alpha thrombin inhibition", "setting": "rat α-thrombin; peptide 1.00E+02 uM", "value": "5.4 and 5.2 and 4.3"}, {"measurement": "slope normalized to DMSO, rat alpha thrombin inhibition", "setting": "rat α-thrombin; peptide 1.19E-05 uM", "value": "102.6 and 102.2 and 91.2"}, {"measurement": "slope normalized to DMSO, rat alpha thrombin inhibition", "setting": "rat α-thrombin; peptide 1.22E-02 uM", "value": "54.9 and 61.5 and 61.2"}, {"measurement": "slope normalized to DMSO, rat alpha thrombin inhibition", "setting": "rat α-thrombin; peptide 1.25E+01 uM", "value": "7.2 and 11.2 and 5.0"}]}]}
